{
  "source": "the supplement of paper PMC10307832",
  "assay_in_all_cases": "relative viability (nuclei count vs DMSO), 5 days (fraction); higher = more cells survive",
  "key": {"NCI-H1792": {"tested_on": "NCI-H1792", "method_in_brief": "(§1)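 Nuclei were stained with Hoechst during a one-step fixation (final 0.05% Triton X-100, 1% formaldehyde, 1 ug/ml Hoechst) carried out 5 days after dosing, then counted on 4× images. The cells, lung cancer lines in 1536-well plates, had been dosed by pin tool the day after seeding with one drug alone or a fixed anchor-drug dose plus five library-drug doses (not always all listed) in √10 steps. Relative viability is the nuclei count in treated wells divided by that in vehicle wells, and each value is the median of duplicate plates.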"}, "201T": {"tested_on": "201T", "method_in_brief": "as §1"}, "NCI-H727": {"tested_on": "NCI-H727", "method_in_brief": "as §1"}, "NCI-H1793": {"tested_on": "NCI-H1793", "method_in_brief": "as §1"}, "HCC-827": {"tested_on": "HCC-827", "method_in_brief": "as §1"}, "NCI-H2087": {"tested_on": "NCI-H2087", "method_in_brief": "as §1"}, "NCI-H1650": {"tested_on": "NCI-H1650", "method_in_brief": "as §1"}, "NCI-H2228": {"tested_on": "NCI-H2228", "method_in_brief": "as §1"}, "NCI-H1395": {"tested_on": "NCI-H1395", "method_in_brief": "as §1"}, "NCI-H3122": {"tested_on": "NCI-H3122", "method_in_brief": "as §1"}, "NCI-H322M": {"tested_on": "NCI-H322M", "method_in_brief": "as §1"}, "SK-LU-1": {"tested_on": "SK-LU-1", "method_in_brief": "as §1"}, "NCI-H2405": {"tested_on": "NCI-H2405", "method_in_brief": "as §1"}, "NCI-H1437": {"tested_on": "NCI-H1437", "method_in_brief": "as §1"}, "LCLC-103H": {"tested_on": "LCLC-103H", "method_in_brief": "as §1"}, "NCI-H647": {"tested_on": "NCI-H647", "method_in_brief": "as §1"}, "LCLC-97TM1": {"tested_on": "LCLC-97TM1", "method_in_brief": "as §1"}, "RERF-LC-KJ": {"tested_on": "RERF-LC-KJ", "method_in_brief": "as §1"}, "BEN": {"tested_on": "BEN", "method_in_brief": "as §1"}, "LXF-289": {"tested_on": "LXF-289", "method_in_brief": "as §1"}, "CAL-12T": {"tested_on": "CAL-12T", "method_in_brief": "as §1"}, "NCI-H1944": {"tested_on": "NCI-H1944", "method_in_brief": "as §1"}},
  "data": [
    {"smiles": "COc1nc(C)cnc1NS(=O)(=O)c1cccnc1-c1ccc(-c2nnco2)cc1", "note": "[Zibotentan] + CS(=O)(=O)N1CCN(Cc2cc3nc(-c4cccc5[nH]ncc45)nc(N4CCOCC4)c3s2)CC1 [Pictilisib] (partner 1 µM)", "values": [
      {"measurement": "relative viability", "setting": "NCI-H1792; first compound 0.08 µM", "value": 0.275},
      {"measurement": "relative viability", "setting": "NCI-H1792; first compound 0.253 µM", "value": 0.234},
      {"measurement": "relative viability", "setting": "NCI-H1792; first compound 0.8 µM", "value": 0.257},
      {"measurement": "relative viability", "setting": "NCI-H1792; first compound 2.53 µM", "value": 0.246},
      {"measurement": "relative viability", "setting": "201T; first compound 0.08 µM", "value": 0.725},
      {"measurement": "relative viability", "setting": "201T; first compound 0.253 µM", "value": 0.599},
      {"measurement": "relative viability", "setting": "201T; first compound 0.8 µM", "value": 0.628},
      {"measurement": "relative viability", "setting": "201T; first compound 2.53 µM", "value": 0.711},
      {"measurement": "relative viability", "setting": "NCI-H727; first compound 0.08 µM", "value": 0.567},
      {"measurement": "relative viability", "setting": "NCI-H727; first compound 0.253 µM", "value": 0.38},
      {"measurement": "relative viability", "setting": "NCI-H727; first compound 0.8 µM", "value": 0.395},
      {"measurement": "relative viability", "setting": "NCI-H727; first compound 2.53 µM", "value": 0.483},
      {"measurement": "relative viability", "setting": "NCI-H1793; first compound 0.08 µM", "value": 0.429},
      {"measurement": "relative viability", "setting": "NCI-H1793; first compound 0.253 µM", "value": 0.306},
      {"measurement": "relative viability", "setting": "NCI-H1793; first compound 0.8 µM", "value": 0.391},
      {"measurement": "relative viability", "setting": "NCI-H1793; first compound 2.53 µM", "value": 0.345},
      {"measurement": "relative viability", "setting": "HCC-827; first compound 0.08 µM", "value": 0.95},
      {"measurement": "relative viability", "setting": "HCC-827; first compound 0.253 µM", "value": 0.846},
      {"measurement": "relative viability", "setting": "HCC-827; first compound 0.8 µM", "value": 0.964},
      {"measurement": "relative viability", "setting": "HCC-827; first compound 2.53 µM", "value": 0.956},
      {"measurement": "relative viability", "setting": "NCI-H2087; first compound 0.08 µM", "value": 0.881},
      {"measurement": "relative viability", "setting": "NCI-H2087; first compound 0.253 µM", "value": 0.834},
      {"measurement": "relative viability", "setting": "NCI-H2087; first compound 0.8 µM", "value": 1.01},
      {"measurement": "relative viability", "setting": "NCI-H2087; first compound 2.53 µM", "value": 0.954},
      {"measurement": "relative viability", "setting": "NCI-H1650; first compound 0.08 µM", "value": 0.675},
      {"measurement": "relative viability", "setting": "NCI-H1650; first compound 0.8 µM", "value": 0.638},
      {"measurement": "relative viability", "setting": "NCI-H1650; first compound 2.53 µM", "value": 0.658},
      {"measurement": "relative viability", "setting": "NCI-H2228; first compound 0.08 µM", "value": 0.45},
      {"measurement": "relative viability", "setting": "NCI-H2228; first compound 0.253 µM", "value": 0.438},
      {"measurement": "relative viability", "setting": "NCI-H2228; first compound 0.8 µM", "value": 0.355},
      {"measurement": "relative viability", "setting": "NCI-H2228; first compound 2.53 µM", "value": 0.317},
      {"measurement": "relative viability", "setting": "NCI-H1395; first compound 0.08 µM", "value": 0.789},
      {"measurement": "relative viability", "setting": "NCI-H1395; first compound 0.253 µM", "value": 0.546},
      {"measurement": "relative viability", "setting": "NCI-H1395; first compound 0.8 µM", "value": 0.606},
      {"measurement": "relative viability", "setting": "NCI-H1395; first compound 2.53 µM", "value": 0.541},
      {"measurement": "relative viability", "setting": "NCI-H3122; first compound 0.08 µM", "value": 0.568},
      {"measurement": "relative viability", "setting": "NCI-H3122; first compound 0.253 µM", "value": 0.519},
      {"measurement": "relative viability", "setting": "NCI-H3122; first compound 0.8 µM", "value": 0.576},
      {"measurement": "relative viability", "setting": "NCI-H3122; first compound 2.53 µM", "value": 0.539},
      {"measurement": "relative viability", "setting": "NCI-H322M; first compound 0.08 µM", "value": 0.521},
      {"measurement": "relative viability", "setting": "NCI-H322M; first compound 0.253 µM", "value": 0.559},
      {"measurement": "relative viability", "setting": "NCI-H322M; first compound 0.8 µM", "value": 0.533},
      {"measurement": "relative viability", "setting": "NCI-H322M; first compound 2.53 µM", "value": 0.506},
      {"measurement": "relative viability", "setting": "SK-LU-1; first compound 0.08 µM", "value": 0.603},
      {"measurement": "relative viability", "setting": "SK-LU-1; first compound 0.253 µM", "value": 0.456},
      {"measurement": "relative viability", "setting": "SK-LU-1; first compound 0.8 µM", "value": 0.603},
      {"measurement": "relative viability", "setting": "SK-LU-1; first compound 2.53 µM", "value": 0.54},
      {"measurement": "relative viability", "setting": "NCI-H2405; first compound 0.08 µM", "value": 0.441},
      {"measurement": "relative viability", "setting": "NCI-H2405; first compound 0.253 µM", "value": 0.339},
      {"measurement": "relative viability", "setting": "NCI-H2405; first compound 0.8 µM", "value": 0.473},
      {"measurement": "relative viability", "setting": "NCI-H2405; first compound 2.53 µM", "value": 0.481},
      {"measurement": "relative viability", "setting": "NCI-H1437; first compound 0.08 µM", "value": 0.462},
      {"measurement": "relative viability", "setting": "NCI-H1437; first compound 0.253 µM", "value": 0.334},
      {"measurement": "relative viability", "setting": "NCI-H1437; first compound 0.8 µM", "value": 0.366},
      {"measurement": "relative viability", "setting": "NCI-H1437; first compound 2.53 µM", "value": 0.582},
      {"measurement": "relative viability", "setting": "LCLC-103H; first compound 0.08 µM", "value": 0.681},
      {"measurement": "relative viability", "setting": "LCLC-103H; first compound 0.253 µM", "value": 0.558},
      {"measurement": "relative viability", "setting": "LCLC-103H; first compound 0.8 µM", "value": 0.55},
      {"measurement": "relative viability", "setting": "LCLC-103H; first compound 2.53 µM", "value": 0.608},
      {"measurement": "relative viability", "setting": "NCI-H647; first compound 0.08 µM", "value": 0.391},
      {"measurement": "relative viability", "setting": "NCI-H647; first compound 0.253 µM", "value": 0.355},
      {"measurement": "relative viability", "setting": "NCI-H647; first compound 0.8 µM", "value": 0.41},
      {"measurement": "relative viability", "setting": "NCI-H647; first compound 2.53 µM", "value": 0.388},
      {"measurement": "relative viability", "setting": "LCLC-97TM1; first compound 0.08 µM", "value": 0.214},
      {"measurement": "relative viability", "setting": "LCLC-97TM1; first compound 0.253 µM", "value": 0.167},
      {"measurement": "relative viability", "setting": "LCLC-97TM1; first compound 0.8 µM", "value": 0.176},
      {"measurement": "relative viability", "setting": "LCLC-97TM1; first compound 2.53 µM", "value": 0.176},
      {"measurement": "relative viability", "setting": "RERF-LC-KJ; first compound 0.08 µM", "value": 0.484},
      {"measurement": "relative viability", "setting": "RERF-LC-KJ; first compound 0.253 µM", "value": 0.704},
      {"measurement": "relative viability", "setting": "RERF-LC-KJ; first compound 0.8 µM", "value": 0.593},
      {"measurement": "relative viability", "setting": "RERF-LC-KJ; first compound 2.53 µM", "value": 0.514},
      {"measurement": "relative viability", "setting": "BEN; first compound 0.08 µM", "value": 0.652},
      {"measurement": "relative viability", "setting": "BEN; first compound 0.253 µM", "value": 0.448},
      {"measurement": "relative viability", "setting": "BEN; first compound 0.8 µM", "value": 0.55},
      {"measurement": "relative viability", "setting": "BEN; first compound 2.53 µM", "value": 0.552},
      {"measurement": "relative viability", "setting": "LXF-289; first compound 0.08 µM", "value": 0.774},
      {"measurement": "relative viability", "setting": "LXF-289; first compound 0.253 µM", "value": 0.739},
      {"measurement": "relative viability", "setting": "LXF-289; first compound 0.8 µM", "value": 0.814},
      {"measurement": "relative viability", "setting": "LXF-289; first compound 2.53 µM", "value": 0.783},
      {"measurement": "relative viability", "setting": "CAL-12T; first compound 0.08 µM", "value": 0.395},
      {"measurement": "relative viability", "setting": "CAL-12T; first compound 0.8 µM", "value": 0.453},
      {"measurement": "relative viability", "setting": "CAL-12T; first compound 2.53 µM", "value": 0.513},
      {"measurement": "relative viability", "setting": "NCI-H1944; first compound 0.08 µM", "value": 0.368},
      {"measurement": "relative viability", "setting": "NCI-H1944; first compound 0.253 µM", "value": 0.323},
      {"measurement": "relative viability", "setting": "NCI-H1944; first compound 0.8 µM", "value": 0.338},
      {"measurement": "relative viability", "setting": "NCI-H1944; first compound 2.53 µM", "value": 0.393}
    ]}
  ]
}
